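Dose response: 5 concentrations. Exposure: 48 h. Format: 96-well plates. Endpoint: linear interpolation; highest concentration if not reached. Here, GI50 denotes the concentration required for 50% inhibition of growth. TGI: concentration producing complete growth inhibition.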
Key:
Experiment in all cases: NCI-60 cell line screen, 48 h
SF-268 CNS = tested on: SF-268 CNS
NCI-H460 lung = tested on: NCI-H460 lung
MOLT-4 leukemia = tested on: MOLT-4 leukemia
SW-620 colon = tested on: SW-620 colon
MALME-3M melanoma = tested on: MALME-3M melanoma
MDA-MB-231 breast = tested on: MDA-MB-231 breast
RXF 393 renal = tested on: RXF 393 renal
A498 renal = tested on: A498 renal
SNB-19 CNS = tested on: SNB-19 CNS
HT29 colon = tested on: HT29 colon
OVCAR-8 ovarian = tested on: OVCAR-8 ovarian
UACC-257 melanoma = tested on: UACC-257 melanoma
U251 CNS = tested on: U251 CNS
MDA-MB-468 breast = tested on: MDA-MB-468 breast
HCT-116 colon = tested on: HCT-116 colon
BT-549 breast = tested on: BT-549 breast
UO-31 renal = tested on: UO-31 renal
NCI/ADR-RES ovarian = tested on: NCI/ADR-RES ovarian
SF-295 CNS = tested on: SF-295 CNS
HS 578T breast = tested on: HS 578T breast
SK-MEL-5 melanoma = tested on: SK-MEL-5 melanoma
MDA-MB-435 = tested on: MDA-MB-435
NCI-H522 lung = tested on: NCI-H522 lung
SK-MEL-2 melanoma = tested on: SK-MEL-2 melanoma
A549 NSCLC = tested on: A549 NSCLC
EKVX NSCLC = tested on: EKVX NSCLC
COLO 205 colon = tested on: COLO 205 colon
SF-539 CNS = tested on: SF-539 CNS
CCRF-CEM leukemia = tested on: CCRF-CEM leukemia
UACC-62 melanoma = tested on: UACC-62 melanoma
PC-3 prostate = tested on: PC-3 prostate
OVCAR-3 ovarian = tested on: OVCAR-3 ovarian
TK-10 renal = tested on: TK-10 renal
IGROV1 ovarian = tested on: IGROV1 ovarian
DU-145 prostate = tested on: DU-145 prostate
NCI-H23 lung = tested on: NCI-H23 lung
HCT-15 colon = tested on: HCT-15 colon
SR leukemia = tested on: SR leukemia
HL-60(TB) leukemia = tested on: HL-60(TB) leukemia
786-0 renal = tested on: 786-0 renal
CAKI-1 renal = tested on: CAKI-1 renal
SNB-75 CNS = tested on: SNB-75 CNS
SK-MEL-28 melanoma = tested on: SK-MEL-28 melanoma
T-47D breast = tested on: T-47D breast
SK-OV-3 ovarian = tested on: SK-OV-3 ovarian
OVCAR-5 ovarian = tested on: OVCAR-5 ovarian
MCF7 breast = tested on: MCF7 breast
SN12C renal = tested on: SN12C renal
ACHN renal = tested on: ACHN renal
K-562 leukemia = tested on: K-562 leukemia
KM12 colon = tested on: KM12 colon
HCC-2998 colon = tested on: HCC-2998 colon
LOX IMVI melanoma = tested on: LOX IMVI melanoma
NCI-H226 lung = tested on: NCI-H226 lung
OVCAR-4 ovarian = tested on: OVCAR-4 ovarian
HOP-62 NSCLC = tested on: HOP-62 NSCLC
M14 melanoma = tested on: M14 melanoma
RPMI-8226 leukemia = tested on: RPMI-8226 leukemia
HOP-92 NSCLC = tested on: HOP-92 NSCLC

Which results are given for CCCCNC(=S)Nc1ccc(OCc2nc3ccc(Cl)cc3[nH]2)cc1?
GI50 (SF-268 CNS): 12.1 µM; TGI (SF-268 CNS): 27.9 µM; GI50 (NCI-H460 lung): 10.2 µM; TGI (NCI-H460 lung): 27.8 µM; GI50 (MOLT-4 leukemia): 3.23 µM; TGI (MOLT-4 leukemia): 13.3 µM; GI50 (SW-620 colon): 11.9 µM; TGI (SW-620 colon): 30.7 µM; GI50 (MALME-3M melanoma): 11.6 µM; TGI (MALME-3M melanoma): 23.9 µM; GI50 (MDA-MB-231 breast): 9.9 µM; TGI (MDA-MB-231 breast): 22.1 µM; GI50 (RXF 393 renal): 3.82 µM; TGI (RXF 393 renal): 16.2 µM; GI50 (A498 renal): 12.1 µM; TGI (A498 renal): 24.9 µM; GI50 (SNB-19 CNS): 12.8 µM; TGI (SNB-19 CNS): 25.4 µM; GI50 (HT29 colon): 10.7 µM; TGI (HT29 colon): 24.6 µM; GI50 (OVCAR-8 ovarian): 12.4 µM; TGI (OVCAR-8 ovarian): 25.9 µM; GI50 (UACC-257 melanoma): 11.5 µM; TGI (UACC-257 melanoma): 24.1 µM; GI50 (U251 CNS): 13.1 µM; TGI (U251 CNS): 26.4 µM; GI50 (MDA-MB-468 breast): 2.45 µM; TGI (MDA-MB-468 breast): 12.4 µM; GI50 (HCT-116 colon): 4.54 µM; TGI (HCT-116 colon): 19.7 µM; GI50 (BT-549 breast): 9.98 µM; TGI (BT-549 breast): 22.4 µM; GI50 (UO-31 renal): 3.46 µM; TGI (UO-31 renal): 16.2 µM; GI50 (NCI/ADR-RES ovarian): 5.73 µM; TGI (NCI/ADR-RES ovarian): 23.4 µM; GI50 (SF-295 CNS): 6.92 µM; TGI (SF-295 CNS): 20.6 µM; GI50 (HS 578T breast): 10.7 µM; TGI (HS 578T breast): 38.6 µM; GI50 (SK-MEL-5 melanoma): 11.9 µM; TGI (SK-MEL-5 melanoma): 24.5 µM; GI50 (MDA-MB-435): 10.1 µM; TGI (MDA-MB-435): 22.2 µM; GI50 (NCI-H522 lung): 3.07 µM; TGI (NCI-H522 lung): 14.8 µM; GI50 (SK-MEL-2 melanoma): 13.1 µM; TGI (SK-MEL-2 melanoma): 26.3 µM; GI50 (A549 NSCLC): 12.2 µM; TGI (A549 NSCLC): 26.7 µM; GI50 (EKVX NSCLC): 7.13 µM; TGI (EKVX NSCLC): 20.2 µM; GI50 (COLO 205 colon): 17 µM; TGI (COLO 205 colon): 38.1 µM; GI50 (SF-539 CNS): 11.5 µM; TGI (SF-539 CNS): 23.6 µM; GI50 (CCRF-CEM leukemia): 3.16 µM; TGI (CCRF-CEM leukemia): 12.4 µM; GI50 (UACC-62 melanoma): 9.83 µM; TGI (UACC-62 melanoma): 21.7 µM; GI50 (PC-3 prostate): 3.08 µM; TGI (PC-3 prostate): 14.5 µM; GI50 (OVCAR-3 ovarian): 4.65 µM; TGI (OVCAR-3 ovarian): 19 µM; GI50 (TK-10 renal): 13.1 µM; TGI (TK-10 renal): 26.2 µM; GI50 (IGROV1 ovarian): 5.3 µM; TGI (IGROV1 ovarian): 18.5 µM; GI50 (DU-145 prostate): 12.9 µM; TGI (DU-145 prostate): 26 µM; GI50 (NCI-H23 lung): 10.5 µM; TGI (NCI-H23 lung): 23.5 µM; GI50 (HCT-15 colon): 4.59 µM; TGI (HCT-15 colon): 17.9 µM; GI50 (SR leukemia): 2.91 µM; TGI (SR leukemia): 17.4 µM; GI50 (HL-60(TB) leukemia): 1.8 µM; TGI (HL-60(TB) leukemia): 9.66 µM; GI50 (786-0 renal): 2.67 µM; TGI (786-0 renal): 10.1 µM; GI50 (CAKI-1 renal): 4.42 µM; TGI (CAKI-1 renal): 18.3 µM; GI50 (SNB-75 CNS): 3.48 µM; TGI (SNB-75 CNS): 18.1 µM; GI50 (SK-MEL-28 melanoma): 14.3 µM; TGI (SK-MEL-28 melanoma): 27.5 µM; GI50 (T-47D breast): 6.06 µM; TGI (T-47D breast): 20.5 µM; GI50 (SK-OV-3 ovarian): 14.8 µM; TGI (SK-OV-3 ovarian): 28.6 µM; GI50 (OVCAR-5 ovarian): 13 µM; TGI (OVCAR-5 ovarian): 25.6 µM; GI50 (MCF7 breast): 3.55 µM; TGI (MCF7 breast): 18.8 µM; GI50 (SN12C renal): 10.5 µM; TGI (SN12C renal): 22.9 µM; GI50 (ACHN renal): 7.74 µM; TGI (ACHN renal): 20.4 µM; GI50 (K-562 leukemia): 3.41 µM; TGI (K-562 leukemia): > 100 µM; GI50 (KM12 colon): 14 µM; TGI (KM12 colon): 28.9 µM; GI50 (HCC-2998 colon): 4.14 µM; TGI (HCC-2998 colon): 17.1 µM; GI50 (LOX IMVI melanoma): 3.41 µM; TGI (LOX IMVI melanoma): 16.2 µM; GI50 (NCI-H226 lung): 9.57 µM; TGI (NCI-H226 lung): 26.4 µM; GI50 (OVCAR-4 ovarian): 7.67 µM; TGI (OVCAR-4 ovarian): 21.5 µM; GI50 (HOP-62 NSCLC): 13.9 µM; TGI (HOP-62 NSCLC): 27.3 µM; GI50 (M14 melanoma): 11.3 µM; TGI (M14 melanoma): 26.8 µM; GI50 (RPMI-8226 leukemia): 3.83 µM; TGI (RPMI-8226 leukemia): 30.3 µM; GI50 (HOP-92 NSCLC): 2.04 µM; TGI (HOP-92 NSCLC): 6.43 µM

— PubChem BioAssay (NCI)
